# Test results as given in patent US20110065597A1, “SINGLE MOLECULE PROTEOMICS WITH DYNAMIC PROBES” (LI-COR, INC., priority 2009, published 2011).
# Columns and labels:
# [1] = Photostability of dye-labeled secondary antibody in fixed NIH3T3 cells (fluorescence intensity vs exposure number); format: physicochemical; settings: FIG. 3B, compared with IRDye 680 and Alexa Fluor 680
# Method: LI-COR IRDye 700DX is shown in FIG. 3A which has multiple charged groups. NIH3T3 cells were fixed and permeabilized, followed by incubation with rabbit anti-histone primary antibody and goat anti-rabbit secondary antibody labeled with IRDye 680, IRDye 700DX, or Alexa Fluor 680. Images were recorded in movies of 2-second exposures by a Roper Micromax CCD in a Zeiss Axiovert S100 microscope. The mean fluorescence intensity of the field is plotted against exposure number (FIG. 3B).
# [2] = target: neutravidin (Gallus gallus, UniProt P02701); settings: at each individual immobilized biotin molecule, picomolar neutravidin in solution; cited from earlier work
# Sequence of neutravidin (P02701 25-152): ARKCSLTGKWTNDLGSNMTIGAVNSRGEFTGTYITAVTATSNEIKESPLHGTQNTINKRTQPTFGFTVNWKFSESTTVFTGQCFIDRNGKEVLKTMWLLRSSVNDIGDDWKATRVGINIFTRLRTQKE
photostability [1],SMILES,diffusion-limited binding rate [2] [M⁻¹ s⁻¹]
superior,"C[Si](C)(CCC[N+](CCCS(=O)(=O)[O-])(CCCS(=O)(=O)[O-])CCCS(=O)(=O)[O-])O[Si]1(O[Si](C)(C)CCC[N+](CCCS(=O)(=O)[O-])(CCCS(=O)(=O)[O-])CCCS(=O)(=O)[O-])n2c3c4ccccc4c2N=C2N=C(N=c4c5ccccc5c(n41)=NC1=NC(=N3)c3ccccc31)c1cccc(OCCCOC(=O)NCCCCCC(=O)ON3C(=O)CCC3=O)c12.[Na+].[Na+].[Na+].[Na+] (centres unmarked) [IRDye, 700DX]",
,O=C(O)CCCC[C@@H]1SC[C@@H]2NC(=O)N[C@@H]21 [biotin],1.9e+08
